According to US20220334101A1, “MODULATING EXTRACELLULAR MATRIX MOVEMENT” (Helmholtz Zentrum Muenchen - Deutsches Forschungszentrum …, priority 2019, published 2022):
“Also recorded” adds a separate entry of the source. Structures can show the parent of a compound that is named as a salt.

Experiments:
[1] = test system: fascia matrix; experiment: Fascia in vitro culture, live imaging of matrix movements (SHG); type: cell-based, mouse; details: C57BL6/J neonate fascia biopsy, 100 μM Etoposide
Method: Two in vitro systems were used. To visualize the changes in matrix architecture in real time, 2 mm-diameter biopsies were excised from P0 C57BL/6J neonates and processed for live imaging (SCAD assay, Patent Application No. PLA17A13). To determine the effectiveness of the DT treatment, muscle+fascia was manually separated from the rest of the skin in the chimeric grafts experiments and incubated with DT at different concentrations for 1 h at ambient temperature. […]
Histological sections were imaged using a using a ZEISS AxioImager.Z2m (Carl Zeiss). […] Second harmonic generation signal and green auto-fluorescence as a reference were recorded every hour. […]
Histological images were analyzed using ImageJ. For quantification of labeled cells in the fate mapping experiments, the Inventors manually defined the wound, surrounding dermis, and adjacent fascia areas. […] The number of labeled cells in each area was determined by quantifying the particles that were double-positive for DAPI and for the desired label (eg. Dil, GFP, etc) channels. The coverage of the labeled matrix in the wound area was determined by quantifying the area that was double-positive for the labeled matrix and the COLLAGEN I+III+VI staining signal. […] Scar length was quantified from randomly selected sections taken from the middle of the scar using as a reference the two flanking hair follicles. […]

[2] = test system: Gli1; experiment: 3D staining of fascia tissue for Gli1 (hedgehog pathway); type: cell-based, mouse; details: fascia tissue in Matrigel
Method: (§1) In order to characterize the properties of fascia samples cultured in Matrigel, the Inventors fixed the whole gel (with fascia tissue embedded inside) and conducted 3D staining. Samples were immersed overnight in PBSGT (lx PBS implemented with 0.2% gelatin (Sigma), 0.5% Triton X-100 (Sigma) and 0.01% thimerosal (Sigma)) at room temperature and incubated with primary antibodies diluted in PBSGT for three days at room temperature. The tissues were then washed three times with PBSGT for at least 30 min each time and incubated with secondary antibodies diluted in PBSGT for one day. Finally, tissues were rinsed three times with PBSGT and stored in PBS at 4° C. until imaging. 3D whole mount imaging was conducted with a Leica SP8 multi-photon microscope.
(§2) Primary and secondary antibodies applied in 3D staining: αSMA (ab21027, Abcam), Ki 67 (ab16667, Abcam), Cleaved Caspase-3 (9661S, Cell signalling), Gli1 (ab49314, Abcam), Donkey anti rabbit AF647 (A-31573, Life Technologies), Donkey anti goat AF647 (A-21447, Life Technologies).
To better understand the molecular basis of reticulations that leads to scarring, the Inventors took a closer look at the molecular targets of the ‘hit’ chemicals. […] Thiostrepton reduces the binding activity of the transcriptional factor FoxM1; a positive regulator of Gli1 signaling (REF). […]

[3] = test system: scars of splinted back-skin wounds; experiment: In vivo splinted wound model (scar formation); parameters: species or system mouse; details: 75 μl per wound of 250 μM intra-dermally, day 21, trichrome staining
[4] = test system: fascia fibroblasts; experiment: 3D staining of fascia tissue for αSMA, Ki67 and caspase 3; type: cell-based, mouse; details: fascia tissue in Matrigel
Method: as §1, §2
To better understand the molecular basis of reticulations that leads to scarring, the Inventors took a closer look at the molecular targets of the ‘hit’ chemicals. […] Thiostrepton reduces the binding activity of the transcriptional factor FoxM1; a positive regulator of Gli1 signaling (REF). Whereas Itraconazole inhibits Gli nuclear activity through stopping SMO moving to the membrane of primary cilia and thus inhibiting the pathway (James et al., 2010). […] The 3rd anti-scar drug Fluvastatin inhibits 3-Hydroxy-3-methylglutaryl-coenzyme A (HMG-CoA) reductase, a rate-limiting enzyme in cholesterol biogenesis that is required for hedgehog pathway activation (Huang P et al., 2016; Giovanni Luchetti et al., 2016). […] Thus, the Inventors conclude that anti-fibrosis chemicals converge on SHH pathway signaling to modulate fibroblast sprouting and reticulations, needed to mobilize fascia jelly into sites of injury.
The hedgehog pathway was also reported to induce proliferation and to depress apoptosis.

[5] = test system: skin-fascia explants; experiment: Scar-in-a-dish (SCAD) ex vivo skin-fascia explant assay, screening of Prestwick chemical library; type: cell-based, mouse; details: molecules of table 1 named as inhibitors of ECM movement
Excerpt: Post born Day 0 (P0) neonates of C57BL/6J wild type mouse were first sacrificed by decapitation. Then dorsal back skin was isolated to make 2 mm full thickness biopsies (0 2 mm, Stiefel) that included the epidermis, dermis and deep subcutaneous fascia layers. The whole skin tissue explant system is termed as scar-in-a-dish (SCAD) assay (Patent Application no. PLA17A13). The SCAD tissue was maintained in DMEM/F12 cell culture medium (Life Technologies) supplemented with 10% FBS (Life Technologies), 1% non-essential amino acid (Thermo Fisher), 1% Glutamax (Thermo Fisher), 1% penicillin and streptomycin (Thermo Fisher) in a 37° C. incubator supplied with […] and 5% CO2. Medium was changed every other day until day 5 when SCADs were collected and fixed for histology analysis. To be noticed, the excised skin was submerged […] in culture media, which confined the scar-prone fibroblasts to the explant and discouraged their adherence to the tissue culture plate.
The PCL provides an additional advantage as all chemicals are of stable physicochemical properties, show a high range of chemical diversity, and are with known bioavailability and safety data in humans. All these information helps to reduce the probability of screening low-quality hits and save the costs of preliminary screening process.
In order to accommodate to medium scale screening approach, the Inventors adapted the SCAD explant system into 96-well plate (Falcon) formats, with each well contained one biopsy. […] Plate and liquid handling were performed using a high-throughput screening platform system composed of a Sciclone G3 Liquid Handler from PerkinElmer (Waltham, Mass., USA). On Day 0 tissues were treated either with the respective compound (1 mM stock solution) dissolved in 100% dimethyl sulfoxide (DMSO, Carl Roth) or DMSO alone. 0.5 μl of compounds/DMSO were transferred with a 96-array head to 200 μl DMEM/F12 medium per well to keep the final DMSO concentrations at […]. Tissues were then incubated (37° C.; 5% CO2) for 72 h prior to a second round of compound treatment, which was performed by exchanging cell culture medium per well and transferring […] of compounds/DMSO into the fresh medium. After an incubation time of another 48 h (37° C.; 5% CO2) the tissues were harvested and fixed for histological processing and imaging.
Briefly, the Inventors excised 2-mm full thickness skin biopsies that included epidermis, dermis, and deep subcutaneous fascia layers from mouse backs (see Methods). Skin-fascia explants were submerged fascia-side up in culture media, to confine scar-prone fibroblasts to the explant and discourage their adherence to the tissue culture plate.
The Prestwick library has selected a diverse array of chemicals with strong physicochemical properties, with known bioavailability and clinical safety data. The library is an ideal place to start screening as it covers all major therapeutic chemical classes such as central nervous system, cardiovascular system, metabolism, and infectious diseases.

[6] = test system: fascia matrix mobilization into wounds; experiment: Fascia labelling study: fascia mobilization into excisional back-skin wounds in live mice; type: in vivo, mouse; details: 75 μl of 250 μM three times a week, wounds collected Day 7, sodium salt
Method: For the fascia labelling study, 2 mg/ml NHS-fluorescein dye was subcutaneously injected into dorsal skin of wildtype mice at 4 days and 2 days prior to the surgery. After labelling, excisional wounds were made in mouse back-skin and treated with 75 μl saline diluted chemical solutions with a final concentration of 250 μM three times a week from the surgery day onwards. Scar samples were collected on D7.
Having discovered sprouting and reticulations are altered by the compounds, the Inventors went on to check how these effect fascia mobilization in physiologic wounds in live animals. First, the Inventors labelled the subcutaneous fascia layer with a FITC-NHS ester dye in animals, then made full thickness excisional wounds on the backs of fascia-labelled mice, and followed wound healing under the presence of a […] injection regimen using the above 3 separate compounds. Skin wounds were collected at Day 7 after wounding to determine the extent of fascia mobilization and also at 21 days post-injury to determine final wound size and scar severity. In DMSO control groups, the fascia matrix jelly was mobilized into the wound from all sides of the wound, and wounds at 7 days were completely clogged with large patches of labelled matrix jelly.

[7] = test system: fascia fibroblasts; experiment: Fascia invasion assay (ex vivo fascia 3D Matrigel culture); type: cell-based, mouse; details: sodium salt
Method: In order to observe the dynamic changes of fascia fibroblasts, the inventors isolated dorsal skin from P4 to P6 neonates of En1^Cre; R26^mTmG mouse lines. Cre positive neonates from this double transgenic mouse line were detected by green fluorescent signal in dorsal skin with a Leica M205 FA stereo microscope. Matrigel was prepared by diluting the stock aliquots with DMEM/F12 medium to a concentration of 6 mg/ml. Then 150 μl prepared gel was added in the center of a 35 mm cell culture dish (Ibidi). 4 mm biopsies were made from the dorsal skin and fascia tissues were then isolated from the dorsal skin tissues. Isolated fascia tissues were then embedded into the gel and were allowed to be solidified for one hour at 37° C. Then the tissue-gel system was maintained in DMEM/F12 medium (Life Technologies) supplemented with 10% FBS (Life Technologies), 1% non-essential amino acid (Thermo Fisher), 1% Glutamax (Thermo Fisher), 1% penicillin and streptomycin (Thermo Fisher) in a 37° C. incubator supplied with 95% O2 and 5% CO2. Medium was changed every other day until day 4 when tissues were collected and fixed. For fixation with Matrigel system, tissues were fixed in 2% paraformaldehyde (VWR) with 0.1% glutaraldehyde (Sigma) for 1 hour and then washed three times with phosphate buffered saline (PBS, Life Technologies) and stored in PBS at 4° C.
Fascia tissues were recorded everyday by a brightfield microscope to check the invasion and contraction state of the tissues. The invasion index was calculated with the following formula: Invasion index=(SD4−SD0)/SD0
SD4 and SD0 represent tissue size (including the migrated area) on Day 4 and Day 0, respectively. The contraction index was calculated with the following formula: Contraction index=(TD0−TD4)/TD0
TD4 and TD0 represent original tissue size (excluding the migrated area) on Day 4 and Day 0 respectively.
The Inventors isolated fascia from back-skin of En1^Cre; R26^mTmG double-transgenic mice, separately incubated whole fascia explants with 26 small molecules, and measured the invasion index (Si)=(SD4−SD0)/SD0 (see Methods) as a proxy measure of sprouting and reticulation.

| Compound | fascia matrix movements (contraction) [1] | Gli1 protein expression [2] | scar size / scarring of wounds [3] | cell death (caspase 3) [4] | cell proliferation activity (Ki67) [4] | αSMA expression / activation into myofibroblasts [4] | phenotype as inhibitor of ECM movement [5] | fascia (matrix jelly) mobilization into wounds ([6]; listed as Fluvastatin) | fascia (matrix jelly) mobilization into wounds [6] | inter-cell connectivity, sprouting and reticulations within the fascia ([7]; listed as Fluvastatin) | inter-cell connectivity, sprouting and reticulations within the fascia [7] |
| --- | --- | --- | --- | --- | --- | --- | --- | --- | --- | --- | --- |
| COc1cc([C@@H]2c3cc4c(cc3[C@@H](O[C@@H]3O[C@@H]5CO[C@@H](C)O[C@H]5[C@H](O)[C@H]3O)[C@H]3COC(=O)[C@H]23)OCO4)cc(OC)c1O [Etoposide] | no effect; also recorded: clear contraction of the fascial matrix in culture in absence of cell proliferation |  |  |  |  |  |  |  |  |  |  |
| CC(C)n1c(/C=C/C(O)CC(O)CC(=O)O)c(-c2ccc(F)cc2)c2ccccc21 (centres unmarked) [Fluvastatin sodium salt] |  | weakly expressed | reduced scaring of wounds | increased | decreased | cells can be activated into myofibroblast | anti-fibrotic phenotype | completely inhibited | reduced fascia jelly movements | intact cell-cell connection and network formation | completely inhibited sprouting and reticulations |
